Data reported in ChEMBL document CHEMBL5506038, “Discovery of LC-MI-3: A Potent and Orally Bioavailable Degrader of Interleukin-1 Receptor-Associated Kinase 4 for the Treatment of Inflammatory Diseases” (J Med Chem, 2024).
pIC50: −log10 of the molar value. Calls of active or inactive are those of the source. The calls are words filed in the database; no cut-off is given here.

What was measured:
[1] = test system: RAW264.7; assay: Protection against Escherichia coli-induced sepsis in mouse RAW264.7 cells assessed as reduction in TNF-alpha level at 1 uM pretreated with compound for 6 hrs followed by Escherichia coli-induction and measured after 6 hrs by RT-PCR analysis; type: functional, cell-based; conditions: time 12.0 hrs
[2] = Volume of distribution at steady state in Sprague-Dawley rat at 2 mg/kg, iv by LC-MS/MS analysis; type: ADME, organism-based; conditions: in vivo, read-out: Vdss
[3] = test system: RAW264.7; assay: Protection against Escherichia coli-induced sepsis in mouse RAW264.7 cells assessed as reduction in TNF-alpha production at 1 uM pretreated with compound for 6 hrs followed by Escherichia coli-induction and measured after 6 hrs by ELISA analysis; type: functional, cell-based; conditions: time 12.0 hrs
[4] = biological target: Protein cereblon/Interleukin-1 receptor-associated kinase 4 (Homo sapiens, UniProt Q9NWZ3+Q96SW2); assay: PROTAC activity at IRAK4/CRBN in human PBMC cells assessed as reduction in IRAK4 level at 100 nM incubated for 12 hrs by Western blot analysis; type: cell-based
[5] = biological target: T1, Protein cereblon/Interleukin-1 receptor-associated kinase 4 (Mus musculus) (UniProt Q8C7D2+Q8R4K2); assay: PROTAC activity at IRAK4/CRBN in mouse RAW264.7 cells assessed as reduction in IRAK4 level at 100 nM incubated for 12 hrs by Western blot analysis relative to control; type: cell-based
[6] = test system: Mus musculus; assay: Anti-inflammatory activity in imiquimod-induced C57BL/6 mouse psoriasis model assessed as improvement in swelling at 20 mg/kg, po administered twice daily measured for 6 days; type: functional, organism-based; conditions: time 6.0 day
[7] = test system: Mus musculus; assay: Anti-inflammatory activity against LPS-induced acute […] injury C57BL/6 mouse model assessed as reduction in TNF-alpha level in lung at 20 mg/kg, IG pretreated with compound for 12 hrs followed by LPS-induction and measured after 6 hrs by RT-PCR analysis; type: functional, organism-based; conditions: time 18.0 hrs
[8] = biological target: T2, Interleukin-1 receptor-associated kinase 4 (Homo sapiens, UniProt Q9NWZ3); assay: Inhibition of IRAK4 (unknown origin)
T2 sequence (Q9NWZ3 whole entry): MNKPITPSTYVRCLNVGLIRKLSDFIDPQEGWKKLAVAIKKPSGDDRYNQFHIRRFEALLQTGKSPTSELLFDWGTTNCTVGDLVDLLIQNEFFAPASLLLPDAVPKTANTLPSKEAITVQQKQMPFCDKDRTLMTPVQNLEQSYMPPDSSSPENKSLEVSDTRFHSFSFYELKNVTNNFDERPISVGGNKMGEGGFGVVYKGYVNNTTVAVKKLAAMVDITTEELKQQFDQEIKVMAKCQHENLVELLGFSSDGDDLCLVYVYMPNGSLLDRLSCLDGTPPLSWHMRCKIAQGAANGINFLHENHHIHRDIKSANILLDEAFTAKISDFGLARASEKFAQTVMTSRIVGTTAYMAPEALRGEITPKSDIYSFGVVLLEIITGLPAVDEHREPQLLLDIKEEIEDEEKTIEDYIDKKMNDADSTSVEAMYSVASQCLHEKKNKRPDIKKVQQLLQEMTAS

[9] = Cmax in Sprague-Dawley rat at 20 mg/kg, po by LC-MS/MS analysis; type: ADME, organism-based; conditions: in vivo
[10] = Clearance in Sprague-Dawley rat at 2 mg/kg, iv by LC-MS/MS analysis; type: ADME, organism-based; conditions: in vivo
[11] = test system: Mus musculus; assay: Anti-inflammatory activity in imiquimod-induced C57BL/6 mouse psoriasis model assessed as reduction in epidermal acanthosis at 20 mg/kg, po administered twice daily measured for 6 days by H and E staining based analysis; type: functional, organism-based; conditions: time 6.0 day
[12] = test system: RAW264.7; assay: Protection against Escherichia coli-induced sepsis in mouse RAW264.7 cells assessed as reduction in IL-6 production at 1 uM pretreated with compound for 6 hrs followed by Escherichia coli-induction and measured after 6 hrs by ELISA analysis; type: functional, cell-based; conditions: time 12.0 hrs
[13] = biological target: Serine/threonine-protein kinase RIO1 (Homo sapiens) (UniProt Q9BRS2); assay: Induction of RIOK1 degradation in human Caco-2 cells upto 10000 nM incubated for 12 hrs by Western blotting analysis; type: cell-based
[14] = test system: RAW264.7; assay: Effect on IL-6 mRNA expression in LPS-induced mouse RAW264.7 cells at 1 uM pretreated with compound for 1 hr followed by LPS-induction and measured after 6 hrs by RT-PCR analysis; type: functional, cell-based; conditions: time 7.0 hrs
[15] = biological target: T1, Protein cereblon/Interleukin-1 receptor-associated kinase 4 (Mus musculus); assay: PROTAC activity at IRAK4/CRBN in mouse RAW264.7 cells assessed as reduction in IRAK4 level at 200 nM incubated for 12 hrs by proteomic analysis; type: cell-based
[16] = AUC (0 to infinity) in Sprague-Dawley rat at 2 mg/kg, iv by LC-MS/MS analysis; type: ADME, organism-based; conditions: in vivo
[17] = test system: RAW264.7; assay: Activation of NF-kappaB pathway in LPS-induced mouse RAW264.7 cells expressing EGFP at 5 uM pretreated with compound for 1 hr followed by LPS-induction and measured at 15 min by flow cytometry analysis; type: cell-based; conditions: filed as activator, time 75.0 min
[18] = test system: Mus musculus; assay: Anti-inflammatory activity in imiquimod-induced C57BL/6 mouse psoriasis model assessed as improvement in scaling at 20 mg/kg, po administered twice daily measured for 6 days; type: functional, organism-based; conditions: time 6.0 day
[19] = test system: Mus musculus; assay: Anti-inflammatory activity in imiquimod-induced C57BL/6 mouse psoriasis model assessed as reduction in dermal inflammatory cell infiltration at 20 mg/kg, po administered twice daily measured for 6 days by H and E staining based analysis; type: functional, organism-based; conditions: time 6.0 day
[20] = test system: Mus musculus; assay: Anti-inflammatory activity in imiquimod-induced C57BL/6 mouse psoriasis model assessed as improvement in erythema score at 20 mg/kg, po administered twice daily measured for 6 days; type: functional, organism-based; conditions: time 6.0 day
[21] = biological target: DNA-binding protein Ikaros (Homo sapiens) (UniProt Q13422); assay: Induction of IKZF1 degradation in human THP-1 cells upto 10000 nM incubated for 12 hrs by Western blotting analysis; type: cell-based
[22] = Drug metabolism in rat hepatocyte assessed as mono-hydroxylation mediated metabolite formation by LC-MS/MS analysis; type: ADME, cell-based; conditions: hepatocytes
[23] = test system: Mus musculus; assay: Anti-inflammatory activity against LPS-induced acute […] injury C57BL/6 mouse model assessed as reduction in IL-6 level in lung at 20 mg/kg, IG pretreated with compound for 12 hrs followed by LPS-induction and measured after 6 hrs by RT-PCR analysis; type: functional, organism-based; conditions: time 18.0 hrs
[24] = biological target: T1, Protein cereblon/Interleukin-1 receptor-associated kinase 4 (Mus musculus); assay: PROTAC activity at IRAK4/CRBN in mouse RAW264.7 cells assessed as induction of IRAK4 degradation at 100 nM incubated for 12 hrs in presence of MG132 by Western blot analysis; type: cell-based
[25] = biological target: MAP kinase p38 (Mus musculus) (UniProt P47811+O08911+Q9WUI1+Q9Z1B7); assay: Inhibition of MAPK phosphorylation in LPS-induced mouse RAW264.7 cells at 1 uM pretreated with compound for 1 hr followed by LPS-induction and measured after 2 hrs by Western blot analysis; type: cell-based; conditions: time 3.0 hrs
[26] = test system: RAW264.7; assay: Effect on IRAK4 mRNA level in mouse RAW264.7 cells by RT-qPCR analysis; type: functional, cell-based
[27] = test system: Mus musculus; assay: Anti-inflammatory activity against LPS-induced acute […] injury C57BL/6 mouse model assessed as reduction in TNF-alpha level in BALF at 20 mg/kg, IG pretreated with compound for 12 hrs followed by LPS-induction and measured after 6 hrs by ELISA analysis; type: functional, organism-based; conditions: time 18.0 hrs
[28] = Toxicity in C57BL/6 mouse assessed as effect on body weight at 20 mg/kg, po measured for 6 days; type: organism-based; conditions: in vivo, 144 h, time 6 day

T1 sequence (Q8C7D2 whole entry, looked up): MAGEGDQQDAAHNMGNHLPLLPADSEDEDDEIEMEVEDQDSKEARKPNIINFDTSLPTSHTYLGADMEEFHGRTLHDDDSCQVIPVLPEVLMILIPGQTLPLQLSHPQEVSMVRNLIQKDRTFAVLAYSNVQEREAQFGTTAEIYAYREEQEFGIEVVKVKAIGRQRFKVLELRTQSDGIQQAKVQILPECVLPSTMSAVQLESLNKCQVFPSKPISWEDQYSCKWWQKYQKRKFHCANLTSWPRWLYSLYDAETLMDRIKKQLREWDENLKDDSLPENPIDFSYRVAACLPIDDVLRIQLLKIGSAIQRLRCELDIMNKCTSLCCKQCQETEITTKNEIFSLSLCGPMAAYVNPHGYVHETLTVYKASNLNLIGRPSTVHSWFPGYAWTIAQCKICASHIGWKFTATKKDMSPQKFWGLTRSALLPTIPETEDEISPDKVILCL
T1 sequence (Q8R4K2 whole entry, looked up): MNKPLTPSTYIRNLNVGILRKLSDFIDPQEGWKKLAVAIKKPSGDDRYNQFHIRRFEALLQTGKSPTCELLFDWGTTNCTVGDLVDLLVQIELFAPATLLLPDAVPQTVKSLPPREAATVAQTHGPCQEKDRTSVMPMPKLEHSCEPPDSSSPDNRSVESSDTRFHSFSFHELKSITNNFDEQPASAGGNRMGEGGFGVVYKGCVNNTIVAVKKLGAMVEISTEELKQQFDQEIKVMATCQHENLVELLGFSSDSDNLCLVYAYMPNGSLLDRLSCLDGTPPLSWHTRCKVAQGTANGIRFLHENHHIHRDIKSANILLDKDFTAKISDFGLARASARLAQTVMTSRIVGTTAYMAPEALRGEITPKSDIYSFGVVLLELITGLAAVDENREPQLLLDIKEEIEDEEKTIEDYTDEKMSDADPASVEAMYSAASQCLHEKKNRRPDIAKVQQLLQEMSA
Chain of DNA-binding protein Ikaros (Homo sapiens) (Q13422 whole entry): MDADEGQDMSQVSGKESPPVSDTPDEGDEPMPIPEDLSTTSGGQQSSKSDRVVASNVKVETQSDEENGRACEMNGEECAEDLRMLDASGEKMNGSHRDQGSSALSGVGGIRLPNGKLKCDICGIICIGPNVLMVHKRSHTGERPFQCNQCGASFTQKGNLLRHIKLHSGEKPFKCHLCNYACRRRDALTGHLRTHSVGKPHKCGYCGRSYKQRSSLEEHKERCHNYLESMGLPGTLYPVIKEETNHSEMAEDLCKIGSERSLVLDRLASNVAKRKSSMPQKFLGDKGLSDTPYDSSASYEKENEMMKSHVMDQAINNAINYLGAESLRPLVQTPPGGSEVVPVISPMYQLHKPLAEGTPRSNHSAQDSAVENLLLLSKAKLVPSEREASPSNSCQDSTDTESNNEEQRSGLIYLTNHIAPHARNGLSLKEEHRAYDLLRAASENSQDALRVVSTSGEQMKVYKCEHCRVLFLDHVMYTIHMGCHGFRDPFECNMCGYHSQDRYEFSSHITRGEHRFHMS
Chain of Serine/threonine-protein kinase RIO1 (Homo sapiens) (Q9BRS2 whole entry): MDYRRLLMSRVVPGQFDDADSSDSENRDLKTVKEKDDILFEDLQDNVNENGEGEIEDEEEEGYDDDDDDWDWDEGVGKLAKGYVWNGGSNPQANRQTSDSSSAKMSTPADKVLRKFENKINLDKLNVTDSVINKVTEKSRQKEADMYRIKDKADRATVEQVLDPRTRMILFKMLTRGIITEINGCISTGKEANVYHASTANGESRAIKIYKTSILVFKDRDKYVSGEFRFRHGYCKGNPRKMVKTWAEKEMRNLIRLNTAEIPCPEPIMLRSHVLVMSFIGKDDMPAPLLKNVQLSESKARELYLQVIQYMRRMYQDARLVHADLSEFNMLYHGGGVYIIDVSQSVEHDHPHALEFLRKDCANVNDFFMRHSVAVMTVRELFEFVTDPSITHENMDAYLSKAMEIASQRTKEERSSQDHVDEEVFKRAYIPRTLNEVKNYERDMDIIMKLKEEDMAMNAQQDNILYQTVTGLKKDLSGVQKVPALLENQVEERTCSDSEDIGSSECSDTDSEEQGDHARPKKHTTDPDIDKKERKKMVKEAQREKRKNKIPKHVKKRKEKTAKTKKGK
Chain of Protein cereblon/Interleukin-1 receptor-associated kinase 4 (Q96SW2 whole entry, looked up, one chain of several): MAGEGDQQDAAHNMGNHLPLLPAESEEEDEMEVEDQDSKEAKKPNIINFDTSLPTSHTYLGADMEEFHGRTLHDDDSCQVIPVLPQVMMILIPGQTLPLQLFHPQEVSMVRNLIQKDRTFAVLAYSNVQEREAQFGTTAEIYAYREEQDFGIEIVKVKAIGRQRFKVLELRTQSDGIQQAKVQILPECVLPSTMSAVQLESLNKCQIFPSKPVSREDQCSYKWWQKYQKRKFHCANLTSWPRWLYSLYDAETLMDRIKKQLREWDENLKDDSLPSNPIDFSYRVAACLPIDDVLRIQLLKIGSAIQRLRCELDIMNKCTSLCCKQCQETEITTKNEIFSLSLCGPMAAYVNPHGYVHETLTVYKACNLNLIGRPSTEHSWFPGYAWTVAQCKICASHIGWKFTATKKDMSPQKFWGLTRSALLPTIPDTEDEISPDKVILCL

For COc1cc(N2CCN(C(=O)CCOCC#Cc3ccc4c(c3)C(=O)N(C3CCC(=O)NC3=O)C4=O)CC2)ccc1NC(=O)c1cccc(-c2ccn[nH]2)n1 (stereo not drawn), the Activity [1] was “Active”, the Vd [2] was 0.584 L/kg and the Activity [3] was “Active”. The Activity [4] was “Active”, the Emax [5] was 85% and the Activity [6] was “Active”. The Activity [7] was “Active”, the pIC50 [8] was greater than 7.00 and the Cmax [9] was 440 ng/mL. For the same molecule, the clearance [10] was 25.6 mL/min/kg, the Activity [11] was “Active” and the Activity [12] was “Active”. For the same molecule, the Activity [13] was “inactive”, the Activity [14] was “Active” and the Activity [15] was “Active”. For the same molecule, the AUC(0-inf) [16] was 1330 ng·h/mL, the Activity [17] was “Active” and the Activity [18] was “Active”. For the same molecule, the Activity [19] was “Active”, the Activity [20] was “Active” and the Activity [21] was “inactive”. The Drug metabolism [22] was “Metabolite_Detected”, the Activity [23] was “Active” and the Activity [24] was “Active”. For the same molecule, the inhibition [25] was “Active”, the Activity [26] was “inactive” and the Activity [27] was “Active”. For the same molecule, the Activity [28] was “Non-Toxic”.
